According to patent US20250354979A1, “DRUG EVALUATION METHOD, REAGENT, AND KIT” (FUJIFILM Corporation, priority 2023, published 2025):

Experiments:
[1] = system: human iPS cell-derived myocardial cells; assay: Heart rate of myocardial cells by MEA, serum-free culture medium with isoproterenol and carbachol added; assay type: cell-based; conditions: serum-free culture medium with 1 μmol/L isoproterenol and 3 μmol/L carbachol; cumulative drug concentrations, 20 minutes after addition; vs medium control
Method: (§1) Example 4: Method and results of evaluating increase in heart rate by muscarinic receptor inhibitor (atropine) using serum-free culture medium to which adrenergic receptor agonist (isoproterenol) and muscarinic receptor agonist (carbachol) are added Human iPS cell-derived myocardial cells (iCell myocardial cells 2.0, manufactured by FUJIFILM Cellular Dynamics, Inc.) in a frozen state were thawed, suspended in a thawing culture medium (iCell myocardial cell thawing culture medium, manufactured by FUJIFILM Cellular Dynamics, Inc.), and then seeded at a cell density of 50,000 cells per well on a MEA plate (Cyto View MEA 48, manufactured by Axion BioSystems, Inc.). The seeding density of myocardial cells in the vicinity of the electrode was 2,725 cells/mm^2. After the plate was allowed to stand in a CO2 incubator for several hours, a maintenance culture medium (iCell myocardial cell maintenance culture medium, manufactured by FUJIFILM Cellular Dynamics, Inc.) containing serum was added, and the myocardial cells were cultured in the CO2 incubator for about one week. The culture medium was exchanged with a serum-free culture medium (a myocardial cell serum-free assay culture medium, manufactured by FUJIFILM Cellular Dynamics, Inc.) on the day before the measurement.
(§2) On the day of measurement, the MEA plate on which human iPS cell-derived myocardial cells were cultured was placed in an MEA system (Maestro Pro, manufactured by Axion BioSystems, Inc.), 1 μmol/L of isoproterenol (manufactured by Tokyo Chemical Industry Co., Ltd.) and 3 μmol/L of carbachol (manufactured by Tokyo Chemical Industry Co., Ltd.) were added to the culture medium, and then the extracellular potential was measured after 20 minutes from the addition (medium control, atropine concentration: 0 μmol/L). Subsequently, 0.01 μmol/L of atropine (manufactured by Tokyo Chemical Industry Co., Ltd.) was added to the MEA plate, and then the extracellular potential was measured after 20 minutes from the addition. Similarly, atropine was added to give concentrations of 0.1 μmol/L and 1 μmol/L, and then the extracellular potential was measured at each concentration.
From the measurement results of the extracellular potential, the interval between sharp peaks indicating depolarization of human iPS cell-derived myocardial cells was taken as the beating time (sec), and the heart rate (/min)=60/beating time (sec) was calculated. The addition of atropine was confirmed to result in an increase in heart rate of up to 51% (FIG. 7).
In the same manner as in Example 4, evaluation was carried out using an MEA plate on which human iPS cell-derived myocardial cells were cultured. Specifically, the same operations as in Example 4 were carried out except that atropine added in Example 4 was changed to tiotropium (manufactured by Tokyo Chemical Industry Co., Ltd.) and the concentration of tiotropium added was 1 pmol/L, 10 pmol/L, 100 pmol/L, and 1,000 pmol/L.
In the same manner as in Example 4, evaluation was carried out using an MEA plate on which human iPS cell-derived myocardial cells were cultured. Specifically, the same operations as in Example 4 were carried out except that atropine added in Example 4 was changed to glycopyrronium (manufactured by Tokyo Chemical Industry Co., Ltd.) and the concentration of glycopyrronium added was 0.01 nmol/L, 0.1 nmol/L, 1 nmol/L, and 10 nmol/L.
In the same manner as in Example 4, evaluation was carried out using an MEA plate on which human iPS cell-derived myocardial cells were cultured. Specifically, the same operations as in Example 4 were carried out except that the atropine added in Example 4 was changed to propranolol (manufactured by FUJIFILM Wako Pure Chemical Corporation) and the concentration of propranolol added was 0.1 nmol/L, 1 nmol/L, 10 nmol/L, and 100 nmol/L.
In the same manner as in Example 4, evaluation was carried out using an MEA plate on which human iPS cell-derived myocardial cells were cultured. […]

[2] = system: human iPS cell-derived myocardial cells; assay: Heart rate of myocardial cells by MEA, serum-free culture medium with isoproterenol added; assay type: cell-based; conditions: serum-free culture medium with 1 μmol/L isoproterenol; cumulative drug concentrations, 20 minutes after addition; vs medium control
Method: as §1, with “1:” for “4:”, “decrease” for “increase”, “agonist (carbachol)” for “inhibitor (atropine)”, “is” for “and muscarinic receptor agonist (carbachol) are”, “2,671” for “2,725”, “The culture medium was exchanged with a serum-free culture medium (a myocardial cell serum-free assay culture medium, manufactured by FUJIFILM Cellular Dynamics, Inc.) on the day before the measurement.” left out
as §2, with “Ltd.) was” for “Ltd.) and 3 μmol/L of carbachol (manufactured by Tokyo Chemical Industry Co., Ltd.) were”, “control, carbachol” for “control, atropine”, “of carbachol” for “of atropine”, “Similarly, carbachol” for “Similarly, atropine”, “0.1 μmol/L, 1 μmol/L,” for “0.1 μmol/L”, “and 10” for “and 1”
From the measurement results of the extracellular potential, the interval between sharp peaks indicating depolarization of human iPS cell-derived myocardial cells was taken as the beating time (sec), and the heart rate (/min)=60/ beating time (sec) was calculated. […]

## C[N+]1(C)CCC(OC(=O)C(O)(c2ccccc2)C2CCCC2)C1 (stereo not shown) [glycopyrronium]
[1]
  increase in heart rate: up to 36%

## CC1OC2(CS1)CN1CCC2CC1 (stereo not shown) [cevimeline]
[2]
  decrease in heart rate: up to 26%

## CC(C)NCC(O)COc1ccc(CC(N)=O)cc1 (stereo not shown) [atenolol]
[1]
  decrease in heart rate: up to 22%

## CC(C)NCC(O)COc1cccc2ccccc12 (stereo not shown) [propranolol]
[1]
  decrease in heart rate: up to 28%

## CC(=O)Oc1ccccc1C(=O)O [aspirin]
[1]
  increase in heart rate: at most 17%

## CC[C@@H]1C(=O)OC[C@@H]1Cc1cncn1C [pilocarpine]
[2]
  decrease in heart rate: up to 15%

## C[N+]1(C)[C@@H]2C[C@@H](OC(=O)C(O)(c3cccs3)c3cccs3)C[C@H]1[C@@H]1O[C@@H]12 [tiotropium]
[1]
  increase in heart rate: up to 36%
